# Measured values: PMC1884159, “The crystal structure of Escherichia coli TdcF, a member of the highly conserved YjgF/YER057c/UK114 family” (BMC Structural Biology, 2007)
# Tests used:
# TdcF [1] = target: T1, TdcF (Escherichia coli, UniProt P0AGL2); experiment: X-ray crystal structure, crystal soak; assay type: binding; settings: 1 mM soak, 2 h, pH 8
# T1 construct: recombinant, N-terminal His-tag not cleaved; homotrimer, 14 kDa subunits; ligand sites at subunit interfaces; Cys-36 seen as cysteine sulfonic acid in crystals
# TdcF [2] = target: T1, TdcF; experiment: X-ray crystal structure, no ligand added (as isolated); assay type: binding; settings: 1.6 Å; inter-subunit site C only; putative identity from density, threonine an alternative
# T1 sequence (P0AGL2 whole entry): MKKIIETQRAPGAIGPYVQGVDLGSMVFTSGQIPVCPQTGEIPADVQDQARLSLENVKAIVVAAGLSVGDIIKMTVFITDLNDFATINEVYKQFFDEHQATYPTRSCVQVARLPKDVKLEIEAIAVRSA
smiles,measurement,setting,value
"CCC(=O)O [PPI, propionate]","X-ray crystal structure, crystal soak","TdcF [1]; 2.45 Å, inter-subunit sites B and C occupied",a propionate molecule could be placed with confidence in both
"CCC(=O)C(=O)O [2KT, 2-ketobutyrate]","X-ray crystal structure, crystal soak","TdcF [1]; 1.6 Å, inter-subunit sites A, B and C occupied",clear density for a 2-ketobutyrate ligand in each of the three binding sites
"N[C@@H](CO)C(=O)O [SER, serine]","X-ray crystal structure, no ligand added (as isolated)",TdcF [2],with serine as the ligand with its side-chain in two alternative conformations of equal occupancy
